This passage reports Kb and Ki results from ChEMBL document CHEMBL1130698, “Design and synthesis of new potent, silent 5-HT1A antagonists by covalent coupling of aminopropanol derivatives with selective serotonin reuptake inhibitors” (Bioorg Med Chem Lett, 1998).

Assay [1] addresses T1, 5-hydroxytryptamine receptor 1A (Homo sapiens) (UniProt P08908).
T1 sequence (whole entry): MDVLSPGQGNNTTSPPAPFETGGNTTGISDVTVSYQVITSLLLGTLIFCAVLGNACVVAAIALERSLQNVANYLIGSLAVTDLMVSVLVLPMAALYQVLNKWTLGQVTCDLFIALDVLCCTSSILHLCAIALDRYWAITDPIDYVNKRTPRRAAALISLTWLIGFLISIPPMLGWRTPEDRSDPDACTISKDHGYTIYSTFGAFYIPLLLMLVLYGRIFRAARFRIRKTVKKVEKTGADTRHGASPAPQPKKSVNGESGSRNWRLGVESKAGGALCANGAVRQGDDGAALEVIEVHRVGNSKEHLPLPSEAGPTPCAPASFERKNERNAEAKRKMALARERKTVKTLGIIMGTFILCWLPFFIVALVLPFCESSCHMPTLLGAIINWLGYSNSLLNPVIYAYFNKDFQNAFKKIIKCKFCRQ
Kind of assay: Antagonistic potency as binding affinity of 5-HT stimulated [35S]GTP gamma S to human 5-HT1A receptor. The assay is classed as functional. For orientation: GTPγS is a poorly hydrolysed GTP analogue; its binding reports G protein activation.

Assay [2] addresses T2, 5-hydroxytryptamine receptor 1A (Homo sapiens, UniProt P08908).
T2 sequence (P08908 whole entry): T1 sequence (whole entry)
The assay can be described thus: Displacement of [3H]8-OH-DPAT from human 5-HT1A receptor. For orientation: In a radioligand displacement assay an active substance lowers the binding of a labelled ligand.

In turn, `OC(CNCCCCCCNCCC(Oc1ccc(C(F)(F)F)cc1)c1ccccc1)COc1cccc2ccccc12` (centres undefined) registered a Kb in assay [1] of 1730 nM. The same molecule displayed a Ki in assay [2] of 391 nM.

In assay [1], `O[C@@H](CNCC[C@H](Oc1ccc(C(F)(F)F)cc1)c1ccccc1)COc1cccc2[nH]ccc12` had a Kb of 0.2 nM. For the same molecule, the Ki in assay [2] is 7.8 nM.

Take `O[C@H](CNCC[C@H](Oc1ccc(C(F)(F)F)cc1)c1ccccc1)COc1cccc2[nH]ccc12`: the Kb in assay [1] came out at 1.4 nM. In addition, in assay [2], affinity was put at a Ki of 60.3 nM.

Molecule `O[C@H](COc1cccc2[nH]ccc12)CN1CC[C@@H](c2ccc(F)cc2)[C@H](COc2ccc3c(c2)OCO3)C1` registered a Kb in assay [1] of 0.7 nM. Further, affinity in assay [2] was put at a Ki of 5.9 nM.

Molecule `O[C@@H](COc1cccc2[nH]ccc12)CN1CC[C@@H](c2ccc(F)cc2)[C@H](COc2ccc3c(c2)OCO3)C1` returned a Kb in assay [1] of 7.5 nM. Further, the Ki in assay [2] was 15.7 nM.

In the case of `O[C@@H](CNCC[C@H](Oc1ccc(C(F)(F)F)cc1)c1ccccc1)COc1cccc2ccccc12`, in assay [1], the antagonist equilibrium constant (Kb) is 37.9 nM. For the same molecule, in assay [2], the Ki worked out at 32.9 nM.

In turn, `OC(CNCCCCCCN1CC[C@H](c2ccc(F)cc2)[C@@H](COc2ccc3c(c2)OCO3)C1)COc1cccc2ccccc12` (some centres undefined) returned an antagonist dissociation constant (Kb) in assay [1] of 188 nM. Further, the affinity in assay [2] corresponds to a Ki of 156 nM.

`O[C@H](CNCC[C@H](Oc1ccc(C(F)(F)F)cc1)c1ccccc1)COc1cccc2ccccc12` registered a Kb in assay [1] of 388 nM. In assay [2], the inhibition constant Ki was 142 nM.

`OC(CNCCC(Oc1ccc(C(F)(F)F)cc1)c1ccccc1)COc1cccc2[nH]ccc12` (centres undefined) came in with a Kb in assay [1] of 2.2 nM. In assay [2], this molecule came in with a Ki of 18.7 nM.

For `OC(CNCCCCCCN1CC[C@H](c2ccc(F)cc2)[C@@H](COc2ccc3c(c2)OCO3)C1)COc1cccc2[nH]ccc12` (some centres undefined), the Kb in assay [1] was 4.3 nM. Moreover, the Ki in assay [2] was determined as 6.7 nM.

The molecule `OC(CNCCC(Oc1ccc(C(F)(F)F)cc1)c1ccccc1)COc1ccccc1C1CCCC1` (centres undefined) displayed a Kb in assay [1] of 15.2 nM. In assay [2], this molecule returned a Ki of 36.4 nM.

`CCN(CC)C(=O)[C@@]1(c2ccccc2)C[C@H]1CNCC(O)COc1cccc2[nH]ccc12` (some centres undefined) displayed a Kb in assay [1] of 14.8 nM. This molecule also gave an inhibition constant Ki in assay [2] of 45.4 nM.

As a reminder, the Kb is the affinity of an antagonist, worked out from how it opposes an agonist. Low readings indicate a more potent antagonist, high ones a less potent antagonist. As usually defined, the Ki is the dissociation constant of the complex between target and ligand, obtained from inhibition or displacement.
